Target: T1, human PF4 (Homo sapiens, UniProt P02776)
T1 construct: PF4 is a 70 amino acid, lysine-rich 7.8 kDa platelet-specific protein; made in house; host or cells: Escherichia coli BL21DE3 pLysS (pT7-7) and/or Drosophila S2 cells
T1 sequence (P02776 32-101): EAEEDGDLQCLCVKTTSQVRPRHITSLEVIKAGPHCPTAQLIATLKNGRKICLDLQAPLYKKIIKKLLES
Test: Inhibition of PF4 tetramer formation (BS3 cross-linking, SDS-PAGE)
Type: biochemical
Details: for inhibition at 1 µM: 1 μM inhibitor; for inhibition at 1 µM / inhibition at 3 µM / inhibition at 5 µM / inhibition at 10 µM: read-out: % inhibition of PF4 tetramer formation at single concentration of inhibitor; for inhibition at 3 µM: 3 μM inhibitor (column A); for inhibition at 5 µM: 5 μM inhibitor; for inhibition at 10 µM: 10 μM inhibitor (column A); for IC50: read-out: IC50 of PF4 tetramer formation inhibition
Outline: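 Monomer, dimer, trimer and tetramer fractions were quantified by densitometry after reducing 12% SDS-PAGE of BS3-cross-linked (0.2 mM, 30 min, room temperature) PF4. Before cross-linking, 10 μg/ml E. coli-expressed human WT PF4 in PBS was exposed to compound for 15 min at 37° C or 60 min at room temperature; controls lacked compound.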

| inhibition at 5 µM [%] | inhibition at 10 µM [%] | IC50 [nM] | SMILES | inhibition at 1 µM [%] | inhibition at 3 µM [%] |
| --- | --- | --- | --- | --- | --- |
| 76 | 91 | 2500 | COC(=O)N1CCC[C@H]1C(=O)C1C(=O)c2ccc(C(=O)c3ccc4c(c3)C(=O)C(C(=O)[C@@H]3CCCN3C(=O)OC)C4=O)cc2C1=O (stereo partly drawn) [Example 114, methyl (2S)-2-(5-{2-[(2S)-1-(methoxycarbonyl)pyrrolidine-2-carbonyl]-1,3-dioxo-2,3-dihydro-1H-indene-5-carbonyl}-1,3-dioxo-2,3-dihydro-1H-indene-2-carbonyl)pyrrolidine-1-carboxylate] | – | – |
| 87 | 95 | 2000 | O=C(CN1CCCC1=O)C1C(=O)c2ccc(S(=O)(=O)c3ccc4c(c3)C(=O)C(C(=O)CN3CCCC3=O)C4=O)cc2C1=O (centres unmarked) [Example 184, 5-({1,3-dioxo-2-[2-(2-oxopyrrolidin-1-yl)acetyl]-2,3-dihydro-1H-inden-5-yl}sulfonyl)-2-[2-(2-oxopyrrolidin-1-yl)acetyl]-2,3-dihydro-1H-indene-1,3-dione] | – | – |
| 70 | 86 | 3000 | O=C(Cn1cnnn1)C1C(=O)c2ccc(S(=O)(=O)c3ccc4c(c3)C(=O)C(C(=O)Cn3cnnn3)C4=O)cc2C1=O (centres unmarked) [Example 169, 5-({1,3-dioxo-2-[2-(1H-1,2,3,4-tetrazol-1-yl)acetyl]-2,3-dihydro-1H-inden-5-yl}sulfonyl)-2-[2-(1H-1,2,3,4-tetrazol-1-yl)acetyl]-2,3-dihydro-1H-indene-1,3-dione] | – | – |
| 79 | 86 | – | O=C(c1ccc2c(c1)C(=O)C(C(=O)Cc1ccccc1)C2=O)c1ccc2c(c1)C(=O)C(C(=O)Cc1ccccc1)C2=O (centres unmarked) [Example 190, 5-[1,3-dioxo-2-(2-phenylacetyl)-2,3-dihydro-1H-indene-5-carbonyl]-2-(2-phenylacetyl)-2,3-dihydro-1H-indene-1,3-dione] | – | – |
| – | – | 1800 | O=C(O)CCCC(=O)C1C(=O)c2ccc(-c3ccc4c(c3)C(=O)C(C(=O)CCCC(=O)O)C4=O)cc2C1=O (centres unmarked) [Example 227, 5-[2′-(4-carboxybutanoyl)-1,1′,3,3′-tetraoxo-1H,1′H,2H, 2′H,3H,3′H-[5,5′-biinden]-2-yi]-5-oxopentanoic acid] | – | – |
| – | 60 | – | O=C(O)CCNC(=O)C1C(=O)c2ccc(S(=O)(=O)c3ccc4c(c3)C(=O)C(C(=O)NCCC(=O)O)C4=O)cc2C1=O (centres unmarked) [Example 303, 3-{[5-({2-[(2-carboxyethyl)carbamoyl]-1,3-dioxo-2,3-dihydro-1H-inden-5-yl}sulfonyl)-1,3-dioxo-2,3-dihydro-1H-inden-2-yl]formamido}propanoic acid] | – | – |

Second part, the compound before the results:

| SMILES | inhibition at 5 µM [%] | inhibition at 10 µM [%] | IC50 [nM] | inhibition at 1 µM [%] | inhibition at 3 µM [%] |
| --- | --- | --- | --- | --- | --- |
| CCC(=O)C1C(=O)c2ccc(Oc3ccc4c(c3)C(=O)C(C(=O)CC)C4=O)cc2C1=O (centres unmarked) [Example 323, 5-[(1,3-dioxo-2-propanoyl-2,3-dihydro-1H-inden-5-yl)oxy]-2-propanoyl-2,3-dihydro-1H-indene-1,3-dione] | – | – | – | 7 | 18 |
| Cc1cccc(NC(=O)C2C(=O)c3ccc(C(=O)c4ccc5c(c4)C(=O)C(C(=O)Nc4cccc(C)c4)C5=O)cc3C2=O)c1 (centres unmarked) [Example 38, 5,5′-carbonylbis(1,3-dioxo-n-(m-tolyl)-2,3-dihydro-1h-indene-2-carboxamide)] | 74 | 88 | 1070 | – | – |
| CC(C)(C)OC(=O)N1CC[C@@H](C(=O)C2C(=O)c3ccc(C(=O)c4ccc5c(c4)C(=O)C(C(=O)[C@@H]4CCN(C(=O)OC(C)(C)C)C4)C5=O)cc3C2=O)C1 (stereo partly drawn) [Example 375, tert-butyl (3R)-3-(5-{2-[(3R)-1-[(tert-butoxy)carbonyl]pyrrolidine-3-carbonyl]-1,3-dioxo-2,3-dihydro-1H-indene-5-carbonyl}-1,3-dioxo-2,3-dihydro-1H-indene-2-carbonyl)pyrrolidine-1-carboxylate] | – | – | – | 14 | 32 |
| O=C1CC(=O)c2cc(S(=O)(=O)c3ccc4c(c3)C(=O)CC4=O)ccc21 [Example 12, 5,5′-sulfonylbis(1h-indene-1,3(2h)-dione)] | – | – | 2320 | – | – |
| CCNC(=O)C1C(=O)c2ccc(C(=O)c3ccc4c(c3)C(=O)C(C(=O)NCC)C4=O)cc2C1=O (centres unmarked) [Example 335, N-ethyl-5-[2-(ethylcarbamoyl)-1,3-dioxo-2,3-dihydro-1H-indene-5-carbonyl]-1,3-dioxo-2,3-dihydro-1H-indene-2-carboxamide] | – | – | – | 23 | 39 |
| CC(=O)c1cccc(NC(=O)C2C(=O)c3ccc(C(=O)c4ccc5c(c4)C(=O)C(C(=O)Nc4cccc(C(C)=O)c4)C5=O)cc3C2=O)c1 (centres unmarked) [Example 103, N-(3-acetylphenyl)-5-{2-[(3-acetylphenyl)carbamoyl]-1,3-dioxo-2,3-dihydro-1H-indene-5-carbonyl}-1,3-dioxo-2,3-dihydro-1H-indene-2-carboxamide] | 66 | 77 | 500 | – | – |
| O=C(O)CCNC(=O)C1C(=O)c2ccc(Oc3ccc4c(c3)C(=O)C(C(=O)NCCC(=O)O)C4=O)cc2C1=O (centres unmarked) [Example 305, 3-{[5-({2-[(2-carboxyethyl)carbamoyl]-1,3-dioxo-2,3-dihydro-1H-inden-5-yl}oxy)-1,3-dioxo-2,3-dihydro-1H-inden-2-yl]formamido}propanoic acid] | – | – | – | 13 | 50 |
| CC(C)(C)OC(=O)N1CCCC[C@@H]1C(=O)C1C(=O)c2ccc(C(=O)c3ccc4c(c3)C(=O)C(C(=O)[C@H]3CCCCN3C(=O)OC(C)(C)C)C4=O)cc2C1=O (stereo partly drawn) [Example 275, tert-butyl (2R)-2-(5-{2-[(2R)-1-[(tert-butoxy)carbonyl]piperidine-2-carbonyl]-1,3-dioxo-2,3-dihydro-1H-indene-5-carbonyl}-1,3-dioxo-2,3-dihydro-1H-indene-2-carbonyl)piperidine-1-carboxylate] | – | – | 3000 | 5 | 31 |
| CC(C)(C)OC(=O)N1CC[C@H](C(=O)C2C(=O)c3ccc(S(=O)(=O)c4ccc5c(c4)C(=O)C(C(=O)[C@H]4CCN(C(=O)OC(C)(C)C)C4)C5=O)cc3C2=O)C1 (stereo partly drawn) [Example 374, tert-butyl (3S)-3-[5-({2-[(3S)-1-[(tert-butoxy)carbonyl]pyrrolidine-3-carbonyl]-1,3-dioxo-2,3-dihydro-1H-inden-5-yl}sulfonyl)-1,3-dioxo-2,3-dihydro-1H-indene-2-carbonyl]pyrrolidine-1-carboxylate] | – | – | – | 22 | 49 |
| O=C(c1ccc2c(c1)C(=O)C(C(=S)NC1CC1)C2=O)c1ccc2c(c1)C(=O)C(C(=S)NC1CC1)C2=O (centres unmarked) [Example 328, N-cyclopropyl-5-[2-(cyclopropylcarbamothioyl)-1,3-dioxo-2,3-dihydro-1H-indene-5-carbonyl]-1,3-dioxo-2,3-dihydro-1H-indene-2-carbothioamide] | – | – | – | 16 | 26 |
| O=C1c2ccc(S(=O)(=O)c3ccc4c(c3)C(=O)C(C(=O)[C@H]3CCCN3)C4=O)cc2C(=O)C1C(=O)[C@@H]1CCNC1 (stereo partly drawn) [Example 350, 5-({1,3-dioxo-2-[(3R)-pyrrolidine-3-carbonyl]-2,3-dihydro-1H-inden-5-yl}sulfonyl)-2-[(2R)-pyrrolidine-2-carbonyl]-2,3-dihydro-1H-indene-1,3-dione] | – | – | – | 18 | 39 |
| COC(=O)CCC(=O)C1C(=O)c2ccc(C(=O)c3ccc4c(c3)C(=O)C(C(=O)CCC(=O)OC)C4=O)cc2C1=O (centres unmarked) [Example 230, methyl 4-{5-[2-(4-methoxy-4-oxobutanoyl)-1,3-dioxo-2,3-dihydro-1H-indene-5-carbonyl]-1,3-dioxo-2,3-dihydro-1H-inden-2-yl}-4-oxobutanoate] | – | – | – | 1 | 24 |
| CC(C)(C)OC(=O)N1C[C@H](F)C[C@H]1C(=O)C1C(=O)c2ccc(C(=O)c3ccc4c(c3)C(=O)C(C(=O)[C@@H]3C[C@@H](F)CN3C(=O)OC(C)(C)C)C4=O)cc2C1=O (stereo partly drawn) [Example 113, tert-butyl (2S,4R)-2-(5-{2-[(2S,4R)-1-[(tert-butoxy)carbonyl]-4-fluoropyrrolidine-2-carbonyl]-1,3-dioxo-2,3-dihydro-1H-indene-5-carbonyl}-1,3-dioxo-2,3-dihydro-1H-indene-2-carbonyl)-4-fluoropyrrolidine-1-carboxylate] | 68 | 86 | 5400 | – | – |
| O=C1c2ccc(Oc3ccc4c(c3)C(=O)C(C(=O)C3CCCCC3)C4=O)cc2C(=O)C1C(=O)C1CCCCC1 (centres unmarked) [Example 286, 2-cyclohexanecarbonyl-5-[(2-cyclohexanecarbonyl-1,3-dioxo-2,3-dihydro-1H-inden-5-yl)oxy]-2,3-dihydro-1H-indene-1,3-dione] | – | – | 3000 | 37 | 47 |
| O=C(c1ccc2c(c1)C(=O)C(C(=O)Nc1ccc(Cl)cc1)C2=O)c1ccc2c(c1)C(=O)C(C(=O)Nc1ccc(Cl)cc1)C2=O (centres unmarked) [Example 78, N-(4-chlorophenyl)-5-{2-[(4-chlorophenyl)carbamoyl]-1,3-dioxo-2,3-dihydro-1H-indene-5-carbonyl}-1,3-dioxo-2,3-dihydro-1H-indene-2-carboxamide] | – | – | 1400 | – | – |
| CCOC(=O)C1(C(C)=O)C(=O)c2ccc(Oc3ccc4c(c3)C(=O)CC4=O)cc2C1=O (centres unmarked) [Example 6, 2-acetyl-5-(1,3-dioxo-indan-5-yloxy)-1,3-dioxo-indan-2-carboxylic acid ethyl ester] | – | – | 1050 | – | – |
